Where a name gives a salt, the structure may show the parent alone.
target: Bcl-xL/BAK (Homo sapiens, UniProt Q07817+Q16611); test: Inhibition of Bcl-xL (1 to 206, delta 45 to 84)-BAK (unknown origin) protein interaction by fluorescence polarization assay
Sequence (Q07817 whole entry): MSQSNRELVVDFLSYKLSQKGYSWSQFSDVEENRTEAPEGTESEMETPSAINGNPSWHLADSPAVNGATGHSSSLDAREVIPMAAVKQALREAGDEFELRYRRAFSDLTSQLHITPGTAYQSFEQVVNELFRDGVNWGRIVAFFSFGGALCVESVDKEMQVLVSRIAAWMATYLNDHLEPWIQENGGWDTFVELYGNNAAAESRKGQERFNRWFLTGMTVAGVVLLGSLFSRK
Sequence (Q16611 whole entry): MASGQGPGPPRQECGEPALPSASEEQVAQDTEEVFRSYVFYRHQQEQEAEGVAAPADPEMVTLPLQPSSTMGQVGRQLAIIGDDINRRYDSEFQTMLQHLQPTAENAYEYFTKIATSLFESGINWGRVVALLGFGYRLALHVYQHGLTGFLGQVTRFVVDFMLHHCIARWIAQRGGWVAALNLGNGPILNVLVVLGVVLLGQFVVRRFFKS

IC50 [µM]	Compound
25.7	CCCC[C@H](CC)CNC(=N)NC(=N)NCCCCCCNC(=N)NC(=N)NC[C@@H](CC)CCCC
21.3	CCCC[C@@H](CC)CNC(=N)NC(=N)NCCCCCCNC(=N)NC(=N)NC[C@H](CC)CCCC
18.3	CCCCC(CC)CNC(=N)NC(=N)NCCCCCCNC(=N)NC(=N)NCC(CC)CCCC (mixture of isomers) [ALEXIDINE DIHYDROCHLORIDE]
